Measurements reported in patent US9688989B2, “H4 receptor inhibitors for treating tinnitus” (SENSORION, priority 2012, dated 2017).

Key:
[1] = tested on: spiral ganglion neurons (SGNs); experiment: Whole-cell current-clamp recordings of step-evoked action potentials in dissociated spiral ganglion neurons; type: cell-based, Wistar rats; details: for inhibition at 0.1 µM / inhibition at 100 µM: Rattus norvegicus, Neuron, read-out: inhibition of frequency of A.P firing; for inhibition at 0.1 µM / resting membrane potential, difference versus control: 100 nM; for amplitude of the first spike / frequency of spikes and amplitude of the first spike: transient spikers SGNs; for inhibition at 100 µM / amplitude of the first spike: 100 μM; for frequency of spikes and amplitude of the first spike: all concentration tested
Description: The head of 5-8 days old Wistar rats (CERJ, Le Genest, Berthevin, France) was hemi-sectioned aseptically and the cochlea dissected from the temporal bone. In L15 (Leibovitz) medium (Gibco) medium, the cochlear bone was gently removed using fine forceps to isolate the sensorineural tissue. The spiral ganglion was separated from the organ of Corti just before the habenula perforata, and enzymatically (collagenase 0.75 mg·mL^−1, dispase 1 mg·mL^−1 and DNAse 0.75 mg·mL^−1) dissociated for 15 min at 25° C. After washing thoroughly with a Tyrode's solution (Sigma), a transfer pipette was used to gently dissociate the ganglion neurons in culture medium (DMEM/F-12 medium 1:1, 2% N2 nutrient, 28 mM Glc, 1.5 mM Gln, 15 mM HEPES, 2 μM AraC, 10 ng mL-1 BDNF and 1% penicillin/streptomycin). The spiral ganglion neurons were plated onto culture dishes previously coated with 10 ug·mL-1 laminin (Sigma). These low density cultures were maintained at 37° C. in 5% CO2 for 3 to 5 days prior whole cell patch-clamp experiments.
Efficacy of H4R antagonist has been tested using two patch clamp technics: whole-cell current-clamp recordings with dissociated spiral ganglion neurons (SGNs) and loose-patch recordings for SGNs in semi-intact cochlea preparations. For these experiments postnatal day (P) 10-14 Wistar rats were used at DIV2-5.
All experiments were performed using an Axopatch 200B amplifier. Traces were low-pass filtered at 10-20 kHz, and digitized at 100 kHz with a Digidata 1440A board. Data were stored with PClamp10.2 software (Axon Instruments; Molecular Devices Corp., USA) and were analyzed off-line using Clampfit 10.2 (Molecular Devices) and Origin 8 (OriginLab) softwares.
The recording solution contained (in mM): NaCl 135, HEPES 10, glucose 10, MgCl2 1, KCl 5, and CaCl2 2.5, (pH 7.35). For whole-cell patch clamp recordings, recording glass pipettes (4-6 MΩ) were coated with Wax to reduce pipette capacitance and were filled with (in mM): KCl 135, HEPES 10, glucose 10, NaCl 5, EGTA 5, Mg-ATP 3, GTP-Na 1, pH 7.35. For these solutions a minor 3.7 mV liquid junction potential could be measured but membrane voltages were not corrected for it. The osmolarity of all solutions was adjusted to 300 mOsm/L. The control and test solutions were applied using a multiple capillary perfusion system (flow rate˜500 μl/min). After each application of the tested drug, the cells were washed with control buffer.
Recordings were performed at room temperature (RT; 22-25° C.). In dissociated neurons, a 150-200 pA DC square current (1 s duration) was applied every 6 s in order to elicit trains of action potentials. The pharmacological tests were conducted only when recordings presented the following criteria: series resistance (<10 MΩ on average) no more than 3 times the pipette resistance, stable resting membrane potential (R.M.P) negative to −40 mV, overshooting action potentials (magnitude >60 mV for the first action potential), stable firing for up to a minute in control condition.
Two concentrations have been tested: 100 μM and 100 nM.
Typically, in dissociated SGNs, (FIG. 2A1) small depolarizing current steps (0.1 nA-0.4 nA) evoked two types of action potential discharge: transient (no more than 1-2 spikes-rapidly adapting neurons) and sustained firing (number of spikes increasing linearly above threshold-slowly adapting neurons) (FIG. 2A2). Transient spikers SGNs represented the majority of neurons in our cell cultures (80% versus 20% of sustained spikers neurons).

[2] = tested on: tinnitus induced by sodium salicylate or noise exposure; experiment: Gap-Prepulse Inhibition of Acoustic Startle (GPIAS) behavioral model of tinnitus; type: in vivo, adult rats; details: rats, single i.p. administration, versus pre-treatment or vehicle
Description: The aim of these in vivo tests is to measure the efficacy of H4R antagonists to decrease (transient and permanent) tinnitus symptoms induced either by sodium salicylate or by high level noise exposure. Evaluation of efficacy is performed in adult rats using the tinnitus test developed by Turner et al. 2006: the Gap-Prepulse Inhibition of Acoustic Startle (GPIAS) behavioral model. This model uses a gap in a constant acoustic background as a pre-stimulus that reduces the acoustic startle reflex amplitude. Rats perceiving tinnitus in a specific frequency have decreased detection of gap embedded in bands similar to the tinnitus frequency. Reduction of the gating efficiency of the gap produces a larger acoustic startle (reduced GPIAS). The level of GPIAS is measured in baseline condition in a cohort of 6 to 8 adult rats. Tinnitus is induced by an i.p administration of sodium salicylate (250 mg/kg) and GPIAS is measured at […] post-induction to measure the reduction in GPIAS (attesting presence of tinnitus). Rats are treated with H4R antagonists (single i.p. administration) or with the vehicle the same day and GPIAS is measured at different time points according to the PK profile of the compounds Alternatively, tinnitus is induced by a unilateral exposure to a 12 kHz narrow band noise presented at 120-126 dB SPL (the contralateral ear is protected with an ear plug) for 2h. […]

[3] = tested on: spiral ganglion neurons (SGNs) in semi-intact cochlea preparation; experiment: Loose-patch recordings of spontaneous action potentials in semi-intact cochlea preparation; type: cell-based, Wistar rats; details: 100 μM bath application, within two minutes, two experiments
Description: For this preparation postnatal day (P) 10-14 Wistar rats were used. First steps of the protocol were similar to the cell culture one until the cochlea was freed from the cochlear bone. Cochlear turns (apical and middle) were dissected and isolated in sterile-filtered L-15 (Leibovitz) Medium. Explants were plated upside down (spiral ganglion neurons on top) on 10 μl of growth factor-reduced Matrigel (BD biosciences) and laminin (10 μg/ml)-coated glass coverslips. These preparations were first incubated for 30 min at 37° C. in a 95%/5% 02/CO2 atmosphere and then cultured for 2 to 5 days in vitro in (50%) F12/(50%) DMEM (Invitrogen) supplemented with (2%) N2 nutrient (Fisher Scientific). […]
All experiments were performed using an Axopatch 200B amplifier. […] Data were stored with PClamp10.2 software (Axon Instruments; Molecular Devices Corp., USA) and were analyzed off-line using Clampfit 10.2 (Molecular Devices) and Origin 8 (OriginLab) softwares.
The recording solution contained (in mM): NaCl 135, HEPES 10, glucose 10, MgCl2 1, KCl 5, and CaCl2 2.5, (pH 7.35). […] For these solutions a minor 3.7 mV liquid junction potential could be measured but membrane voltages were not corrected for it. […]
In these semi-intact cochlea preparations, spontaneous discharges of action potential were directly recorded. […] In vitro results were expressed as means±S.E.M. […]

[4] = target: T1, human H3 receptor (Homo sapiens, UniProt Q9Y5N1); details: radioligand binding; cited from earlier work
T1 construct: expressed in transfected cells; host or cells: SK-N-MC or HEK293 T
T1 sequence (Q9Y5N1 whole entry): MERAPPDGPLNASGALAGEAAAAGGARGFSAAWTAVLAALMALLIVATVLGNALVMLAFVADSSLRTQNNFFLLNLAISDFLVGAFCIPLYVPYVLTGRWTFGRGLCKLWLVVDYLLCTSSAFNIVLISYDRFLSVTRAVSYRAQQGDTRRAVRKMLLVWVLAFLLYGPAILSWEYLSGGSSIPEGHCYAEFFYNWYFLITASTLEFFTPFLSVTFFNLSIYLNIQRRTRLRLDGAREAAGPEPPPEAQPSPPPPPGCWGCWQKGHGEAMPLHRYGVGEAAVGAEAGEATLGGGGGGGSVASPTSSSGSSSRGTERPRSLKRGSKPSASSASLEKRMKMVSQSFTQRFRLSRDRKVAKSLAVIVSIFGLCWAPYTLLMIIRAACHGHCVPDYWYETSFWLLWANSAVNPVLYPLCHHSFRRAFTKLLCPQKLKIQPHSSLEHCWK

Row | SMILES | inhibition at 0.1 µM ([1]; sustained SGNs) | inhibition at 100 µM ([1]; sustained SGNs) | resting membrane potential, difference versus control ([1]; sustained SGNs) | amplitude of the first spike [1] | frequency of spikes and amplitude of the first spike [1] | GPIAS values [2] | spontaneous (synaptically driven) action potential discharge [3] | resting membrane potential, increase versus control ([1]; sustained SGNs, high concentration (100 μM)) | Kd [4]
1 | CN1CCN(C(=O)c2cc3cc(Cl)ccc3[nH]2)CC1 [JNJ7777120, 1-[(5-chloro-1H-indol-2-yl)carbonyl]-4-methylpiperazine] | 21.6 ± 1.7% | 69 ± 8% | 0.55±0.2 mV | 73.3±6.1 mV | unaffected | Increase |  |  | 
2 | CN1CCN(C(=O)c2nc3cc(Cl)ccc3[nH]2)CC1 [JNJ10191584, 1-[(5-chloro-1H-benzimidazol-2-yl)carbonyl]-4-methylpiperazine] | 25.2 ± 2% | 46.2 ± 12% | −0.13±0.4 mV | 83.7±5.2 mV | unaffected | Increase | fully abolished | 1.5±1 mV | 
3 | CNCCc1cnc[nH]1 [[^3H]N-a-methyl histamine] |  |  |  |  |  |  |  |  | 1 nM
